In US8071810B2, “C5a receptor antagonists” (Jerini AG, priority 2005, dated 2011):
Values after ≈ are worked out from the molar mass of the structure shown. Values joined by “and” are separate entries in the source; they are usually repeats but may differ in a detail not shown here. Equal values may be shown once. Read-outs that look alike come from different tables or passages of the source.

Assays:
[1] = test system: E. coli induced oxidative burst in human whole blood; test: E. coli induced oxidative burst in human whole blood (Phagoburst kit, Example 26); type: cell-based; details: read-out: IC50 for the inhibition of the E. coli induced oxidative burst in human whole blood
Description: The whole blood assay is carried out according to the instructions from the Phagoburst-Kit (Orpegen Pharma). 50 μg/ml of Refludan is used to inhibit blood clotting (Mollnes et al. 2002 Blood 100: 1869). Freshly drawn, anticoagulated blood is cooled over ice and 100 μl thereof are added to 10 μl of the compound solution containing at most 1.3% of DMSO. The mixture is incubated for 10 minutes at 37° C. After this the samples are put on ice again and 20 μl of opsonisated E. coli suspension (10^9 cells/ml) is added followed by 10 minutes of incubation at 37° C. 20 μl of the substrate are added to the cells followed by another 10 minutes of incubation at 37° C. After this 2 ml of lysis buffer are added to the cells, which are then kept at room temperature for 20 minutes. The cellular components are separated by centrifugation at 250×g for 5 minutes. The supernatant is discarded and 3 ml of washing solution are added to the pellet. The cells are centrifuged again and the resulting pellet is taken up in 200 μl DNA staining solution. The neutrophiles are analysed by means of a FACS device (FACSCalibur, Becton-Dickinson) according to the parameters given in the manual. […] It can be seen that, due to the determined activity, the compounds of this invention are suited to be used as therapeutics in human.

[2] = biological target: T1, human C5a receptor (CD88) (Homo sapiens, UniProt P21730); test: C5a induced enzyme (glucosaminidase) release assay in RBL cells expressing the human C5a receptor (Example 28); type: cell-based; details: for IC50: RBL cells with human C5aR
T1 construct: expressed in transfected cells; host or cells: rat basophilic leukemia (RBL) cells, stably transfected
T1 sequence (P21730 1-350): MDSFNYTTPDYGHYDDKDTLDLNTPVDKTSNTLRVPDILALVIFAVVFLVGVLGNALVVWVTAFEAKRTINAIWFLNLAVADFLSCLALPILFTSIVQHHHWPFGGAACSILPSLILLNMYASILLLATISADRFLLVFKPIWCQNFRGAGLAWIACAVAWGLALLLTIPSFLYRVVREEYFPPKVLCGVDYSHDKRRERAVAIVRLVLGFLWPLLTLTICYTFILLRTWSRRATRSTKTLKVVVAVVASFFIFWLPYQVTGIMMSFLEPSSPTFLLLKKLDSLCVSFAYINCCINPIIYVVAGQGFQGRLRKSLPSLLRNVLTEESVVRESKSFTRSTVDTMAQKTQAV
How it was run: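 Rat basophilic leukemia (RBL) cells expressing human C5a receptor, at 2×10^6 cells/ml, primed with cytochalasin B, then incubated with test compound 10 min at 37 °C.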

C5a receptor [3] = biological target: T2, C5a receptor (Homo sapiens, UniProt P21730); test: Binding of 125I-C5a to human C5aR transfected HEK293 cells (Example 27); design: expressed in transfected cells; host or cells: HEK293 cells; details: 125I-C5a tracer, read-out: IC50 for the inhibition of the binding of C5a to the C5a receptor
T2 sequence (P21730 1-350): T1 sequence (P21730 1-350)
Description: The binding studies are done as determination of IC50 values with radioactively labeled C5a (125I) as tracer. For this purpose, human C5aR transfected HEK293 cells are adjusted to a concentration of […]. 30 μl of the cell suspension are added into a microtiter plate. Then the C5a receptor antagonists are added followed by 10 minutes pre-incubation at room temperature. After that, 10 μl of labelled C5a are added (15.000 cpm). The mixture is now incubated over ice for 30 minutes. After this the cells are isolated by means of a filter plate (Millipore MHVB 4510) and washed two times with 100 μl HAG-CM each (see example 32). The cells are dried and, after transferring the filter plate onto the adapter plate (Canberra 6005178), 50 μl/well Microscint 0 are added and the plate is measured in the scintillation counter.

C5a receptor [4] = biological target: T2, C5a receptor; details: cited from earlier work
[5] = biological target: T1, human C5a receptor (CD88); test: Agonism in enzyme release assay without C5a stimulus (Example 32); type: cell-based; details: concentration applied 7.1 μM
Description: The assay has been described by Köhl (Köhl 1997 The Anaphylatoxins. In: Dodds, A. W., Sim, R. B. (Eds.), Complement: A Practical Approach. Oxford: 135). Basophile leukemia cells from rats (RBL), which express the human C5a receptor (CD88), are cultivated in DMEM with 10% fetal calf serum, 100 U/ml penicillin, 100 μg/ml streptomycin and 2 mM glutamin (all constituents are from Biochrome, Berlin) at 37° C. and with 10% CO2 until a confluent layer is obtained. All following details refer to a tissue culture flask with 75 cm^2 surface. The used up medium is removed. The cells are washed with 10 ml PBS (Dulbecco's PBS, Biochrome) and then covered with 3 ml cell dissociation solution (CDS, Sigma). The cells are incubated for 1 minute at room temperature. Then the CDS is removed and the cells are incubated for further 10-15 minutes at 37° C. to detach the cells completely from the flask. 20 μl solution of the compound to be testet are used in the assay. The assay solution must not contain more than 2.8% DMSO. The dilution series are prepared in ⅓ or ½ steps. To the 20 μl of the compound solutions 75 μl RBL cells are added which are prepared as follows: After the detachment of the cells from the flask surface they are taken up with 10 ml HAG-CM (20 mM HEPES; 125 mM NaCl, 5 mM KCl, 1 mM CaCl2, 1 mM MgCl2, 0.5 mM glucose, 0.25% BSA. HEPES preparation: 2.3 g/l HEPES salt+2.66 g/l HEPES acid) thermostated at 37° C. The cells are counted and centrifuged (200 g, 10 min). The cell pellet is taken up with pre-heated HAG-CM, and the cell density is adjusted to 2×10^6 Zellen/ml. The cells are incubated for 5 minutes at 37° C. 2.7 μl of a cytochalasin B solution (1000 μg/ml in DMSO, Sigma) are added per ml cell suspension. The Zellen are incubated for another 3 min at 37° C. Then, 75 μl of the cell suspension are added to the 20 μl solution containing the compounds to be tested. Thus a volume of […] per well is obtained. The cells are again incubated for 10 minutes at 37° C. Then 10 μl hrC5a (10.5 nM in HAG-CM, Sigma) are added per well, which is followed by 5 minutes incubation at 37° C. After this the plates are put on ice and centrifuged for 3 minutes at 1200×g and 4° C. 75 μl of the supernatant are added to 100 μl substrate solution (2.7 mg/ml p-nitrophenyl-N-acetyl-b-D-glucosaminide (Sigma) in 42.5 mM sodium acetate, pH 4.5). The plate is incubated for 1 hour at 37° C. Per well 75 μl 0.4 M glycine (pH 10.4) are added. After this the plate can be measured at a wave length of 405 nm. The IC50 value is determined by solving the four parameter equation y=((A−D)/(1+(x/C)^B))+D.
The only difference is the fact that 30 μl of the substance to be tested are mixed with 75 μl of the cell suspension described in example 28. The cells are not pre-incubated and no C5a is added to stimulate enzyme release.

[6] = Solubility in aqueous HEPES buffer by HPLC (Example 33); type: physicochemical; details: kinetic from dmso stock
Description: To determine the solubility the compound to be measured is dissolved (e.g, […] of a 5 mM solution in DMSO) in organic solvent (e.g. 198 μl DMSO) as well as in aqueous buffer solution (e.g. 198 μl HEPES buffer). Both solutions are analyzed via analytical HPLC and the areas under the peaks are compared. The value for the organic solution is taken as 100%.

[7] = AB permeability in TC-7 cell based assay (Example 34); type: in vitro ADME; details: human, Caco-2, TC-7 cells, apical pH 6.5 / basolateral pH 7.4, 120 min
Description: Compounds to be tested are prepared at a concentration of 50 μM in HBSS-MES (5 mM, pH 6.5) (from a 10 mM stock solution in 100% DMSO). ^14C-mannitol (about 4 μM) is added and the solution is mixed and centrifuged. The supernatant is added to the apical side of a TC-7 cell culture (passage 15, in 24 well transwell plate) to obtain a DMSO concentration of 1%. At the basolateral side HBSS-HEPES (5 mM, pH 7.4) is placed. Subsequently, the cells are incubated for 120 minutes at 37° C. The integrity of the TC-7 cell layer is checked by means of the added mannitol (Papp <2.5 10^−6 cm/s). The Permeabilität Papp [cm/s] is equal to (VR×CR120)/(Δt×A×(CD,mid−CR,mid)). VR is the volume of the receiver chamber, CR120 the concentration the test compound in the receiver chamber after 120 minutes, Δt the incubation time, A the area of the TC-7 cell layer, CD,mid the midpoint concentration of the test substance in the donor chamber and CR,mid the concentration of the test compound in the receiver chamber.

[8] = inhibition of C5a induced enzyme release, read-out: Activity-range (antagonistic activity, IC50 enzyme release)
[9] = read-out: IC50 for the inhibition of C5a induced enzyme release
[10] = ratio of enzyme release IC50 values

## CCc1c(N)cc(Cl)c(CC)c1NC(=O)N(c1ccc(NC)cc1)[C@@H](C)c1ccccc1 [compound 132, (S)-3-(3-amino-5-chloro-2,6-diethyl-phenyl)-1-(4-methylamino-phenyl)-1-(1-phenyl-ethyl)-urea]
[1]
  IC50: 620 nM
[2]; [8]
  IC50: < 60 nM
C5a receptor [3]
  IC50: 43.4 nM

## Cc1ccccc1C1c2ccccc2CCN1CC(=O)N(Cc1cccc(O)c1)C1Cc2ccccc2C1 (stereo not drawn) [Compound 9, N-(3-Hydroxy-benzyl)-N-indane-2-yl-2-(1-o-tolyl-3,4-dihydro-1H-isochinolin-2-yl)-acetamide, reference compound]
C5a receptor [4]
  activity, inhibition of C5a induced calcium mobilization: 24 nM
[2]; [9]
  IC50: 7150 nM and 7140 nM

## CCc1c(N)cc(Cl)c(CC)c1NC(=O)N(Cc1ccc(OC)cc1)c1ccc(C(C)C)cc1 [compound 31, 3-(3-amino-5-chloro-2,6-diethyl-phenyl)-1-(4-isopropyl-phenyl)-1-(4-methoxy-benzyl)-urea]
[5]
  Agonism (% of the maximum enzyme release induced by C5a): 0.12%
[6]
  solubility: 2 µM (≈ 0.96 µg/mL)
[2]; [9]
  IC50: 164 nM
[2]; [10]
  Increase of the antagonistic activity by a factor (vs compound 24, NH2 group introduced): 6.4

## CCc1c(N)cc(Cl)c(CC)c1NC(=O)N(c1ccc(OC)cc1F)[C@@H](C)c1ccc(Cl)cc1 [compound 102, (S)-3-(3-amino-5-chloro-2,6-diethyl-phenyl)-1-[1-(4-chloro-phenyl)-ethyl]-1-(2-fluoro-4-methoxy-phenyl)-urea]
[5]
  Agonism (% of the maximum enzyme release induced by C5a): 0.00%
[1]
  IC50: 3200 nM
[7]
  Papp A→B at 120 min, 50 μM: 1.1 ×10⁻⁶ cm/s

## CCc1c(N)cc(Cl)c(CC)c1NC(=O)N(Cc1ccc(Cl)cc1)c1ccc(NC)cc1 [compound 120, 3-(3-amino-5-chloro-2,6-diethyl-phenyl)-1-(4-chloro-benzyl)-1-(4-methylamino-phenyl)-urea]
[1]
  IC50: 1900 nM
[2]; [10]
  Improvement of the antagonistic activity by a factor (vs compound 98, CH2 exchanged by NH): 4.5
C5a receptor [3]
  IC50: 86.5 nM

## CN(CC(=O)N(Cc1ccccc1F)C1Cc2ccccc2C1)C(c1ccccc1)c1ccccc1 [Compound 10, 2-(Benzhydryl-methyl-amino)-N-(2-fluoro-benzyl)-N-indane-2-yl-acetamide, reference compound]
C5a receptor [4]
  activity, inhibition of C5a induced calcium mobilization: 465 nM
[2]; [9]
  IC50: > 4760 nM
[2]; [8]
  IC50: > 5000 nM

## CCc1c(N)cc(Cl)c(CC)c1NC(=O)N(Cc1ccc(Cl)cc1)c1ccc(OC)c2cccnc12 [compound 125, 3-(3-amino-5-chloro-2,6-diethyl-phenyl)-1-(4-chloro-benzyl)-1-(5-methoxy-chinolin-8-yl)-urea]
[5]
  Agonism (% of the maximum enzyme release induced by C5a): 0.00%
[6]
  solubility: 4 µM (≈ 2.09 µg/mL)
[7]
  Papp A→B at 120 min, 50 μM: 2.9 ×10⁻⁶ cm/s
[2]; [8]
  IC50: 60 to 200 nM

## CCc1c(N)cc(Cl)c(CC)c1NC(=O)N(c1ccc(C(C)C)cc1)C1CCc2cc(Cl)ccc21 (stereo not drawn) [compound 88, 3-(3-amino-5-chloro-2,6-diethyl-phenyl)-1-(5-chloro-indane-1-yl)-1-(4-isopropyl-phenyl)-urea]
[2]; [8]
  IC50: 60 to 200 nM
C5a receptor [3]
  IC50: 44 nM

## CCc1c(N)cc(Cl)c(CC)c1NC(=O)N(c1ccc(C(C)C)cc1)[C@@H](C)c1ccc(F)cc1 [compound 81, (S)-3-(3-amino-5-chloro-2,6-diethyl-phenyl)-1-[1-(4-fluor-phenyl)-ethyl]-1-(4-isopropyl-phenyl)-urea]
[2]; [9]
  IC50: 38 nM

## CCc1ccc(N(Cc2ccc(F)cc2)C(=O)Nc2c(CC)c(N)cc(Cl)c2CC)cc1 [compound 96, 3-(3-amino-5-chloro-2,6-diethyl-phenyl)-1-(4-ethyl-phenyl)-1-(4-fluoro-benzyl)-urea]
[2]; [8]
  IC50: 60 to 200 nM

## CCc1c(N)cc(Cl)c(CC)c1NC(=O)N(Cc1ccc(C)nc1)c1ccc(C(C)C)cc1 [compound 76, 3-(3-amino-5-chloro-2,6-diethyl-phenyl)-1-(4-isopropyl-phenyl)-1-(6-methyl-pyridin-3-ylmethyl)-urea]
[2]; [8]
  IC50: 60 to 200 nM
